Patent publication US6562595B2, “Dominant selectable marker for gene transformation and disruption in yeasts” (McGill University, priority 2000, dated 2003)

Tests used:
[1] = test system: C. albicans strain SC5314; experiment: Halo assay (zones of inhibition on confluent plates); type: cell-based, Candida albicans
Description: (§1) Confluent plates of either S. cerevisiae diploid strain SEY6210 (left panel) or C. albicans strain SC5314 (right panel) were spotted with 5 μl of destomycin (DSM), blasticidin (BSN), nourseothricin (NST), geneticin (G418), zeocin (ZEO), and puromycin (PUR) using concentrations of 10 mg/ml, 1 mg/ml, 0.5 mg/ml, 0.25 mg/ml, 0.125 mg/ml, and 0.06 mg/ml (top to bottom). Zones of inhibition were examined after overnight growth; clear halos indicate antifungal activity;
(§2) To explore the possibility of developing a dominant selectable marker for C. albicans, geneticin, the aminoglycoside used in dominant selection studies in S. cerevisiae was initially examined for antifungal activity in C. albicans (FIG. 1). […] When a number of alternative commercially available antibiotics including zeocin, destomycin, nourseothricin, blasticidin, and puromycin were tested for antifungal activity, the present inventors discovered that C. albicans was sensitive to nourseothricin at a concentration of about 200 μg/ml. […] C. albicans was also found to be sensitive to blasticidin. […] (Webster et al., 1983, Gene 26:243-252).

[2] = test system: S. cerevisiae diploid strain SEY6210; experiment: as above; type: cell-based, Saccharomyces cerevisiae; details: at concentration dramatically below that at which geneticin acts
Description: as §1, §2

[3] = test system: S. cerevisiae strain maintaining the geneticin resistance gene KanR; experiment: Nourseothricin sensitivity of geneticin-resistant (KanR) strain; type: cell-based, Saccharomyces cerevisiae; details: S. cerevisiae strain with KanR
Source text: The present inventors also compared the sensitivity of NST to geneticin in S. cerevisiae.

[4] = test system: C. albicans CAI4 maintaining pRC18 vector and parent strain SC5314; experiment: Growth on nourseothricin-supplemented plates; type: cell-based, Candida albicans; details: 400 μg/ml; irrespective of carbon source (1% Casamino acid or YEP 2% glucose)
Description: ASTHMA, PSMP, and vector alone (lacking either SAT expression module) plasmids were transformed into CAI4 and directly selected on YPD-drug supplemented plates (400 μg/ml) prior to being restreaked onto a YPD plate containing 400 μg/ml nourseothricin. A) Six independent ASTHMA transformants, as well as the negative controls CAI4, containing pRC18, and the parent strain, SC5314 are shown after two days growth at 30° C. on YPD plates containing 400 μg/ml NST. B) Four independent PSMP transformants, as well as the negative controls, CAI4 maintaining pRC18, and SC5314, grown on YPD (left plate), and either derepressing conditions (1% Casamino acid+300 μg/ml NST, center plate), or repressing conditions (YPD+300 μg/ml NST, right plate) for PCK1 promoter-dependent expression of SAT. Plates were incubated two days at 30° C.; and
The composition of a YPD medium for culturing yeast contains 1% yeast extract, 2% bactopeptone and 2% glucose. Agar was added in an amount of 2% to the medium in the case of a plate form. Transformant were selected on Ura+ protophy and subsequently streaked onto nourseothricin-supplemented plates containing either 1% Casamino acid (derepressing conditions) or YEP containing 2% glucose (repressing conditions) as alternative carbon sources. […]

Compound	antifungal (fungicidal) activity by halo assay ([1]; C. albicans SC5314, 5 μl spots, 10 to 0.06 mg/ml, overnight growth)	antifungal activity by halo assay [2]	cross-resistance conferred by KanR [3]	concentration at which C. albicans is sensitive ([1]; C. albicans)	effect of medium on antifungal effectiveness ([1]; rich, high-salt YPD plates versus minimal YNB plates)	growth of strains lacking SAT in the presence of the drug [4]
CN(CC[C@H](N)CC(=O)N[C@H]1C=C[C@H](n2ccc(N)nc2=O)O[C@@H]1C(=O)O)C(=N)N [blasticidin]	sensitive	–	–	–	–	–
nourseothricin	–	potent antifungal activity	failed to confer resistance	about 200 μg/ml	dramatically more effective on rich media	failed to grow
